{"source": "PubChem BioAssay (NCI)", "experiment_in_all_cases": "NCI tumour cell line growth inhibition, 48 h", "key": {"[1]": {"test_system": "OVCAR-8 ovarian"}, "[2]": {"test_system": "SF-268 CNS"}, "[3]": {"test_system": "HCC-2998 colon"}, "[4]": {"test_system": "HL-60(TB) leukemia"}, "[5]": {"test_system": "HOP-92 NSCLC"}, "[6]": {"test_system": "SK-MEL-5 melanoma"}, "[7]": {"test_system": "M14 melanoma"}, "[8]": {"test_system": "RXF 393 renal"}, "[9]": {"test_system": "SF-295 CNS"}, "[10]": {"test_system": "RPMI-8226 leukemia"}, "[11]": {"test_system": "ACHN renal"}, "[12]": {"test_system": "IGROV1 ovarian"}, "[13]": {"test_system": "OVCAR-4 ovarian"}, "[14]": {"test_system": "SNB-19 CNS"}, "[15]": {"test_system": "NCI/ADR-RES ovarian"}, "[16]": {"test_system": "TK-10 renal"}, "[17]": {"test_system": "SN12C renal"}, "[18]": {"test_system": "SK-OV-3 ovarian"}, "[19]": {"test_system": "NCI-H460 lung"}, "[20]": {"test_system": "MOLT-4 leukemia"}, "[21]": {"test_system": "UACC-62 melanoma"}, "[22]": {"test_system": "SK-MEL-2 melanoma"}, "[23]": {"test_system": "K-562 leukemia"}, "[24]": {"test_system": "HOP-62 NSCLC"}, "[25]": {"test_system": "A498 renal"}, "[26]": {"test_system": "OVCAR-5 ovarian"}, "[27]": {"test_system": "NCI-H23 lung"}, "[28]": {"test_system": "U251 CNS"}, "[29]": {"test_system": "MCF7 breast"}, "[30]": {"test_system": "EKVX NSCLC"}}, "note": "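The compound was tested at five concentrations on cells cultured in 96-well plates, with a 48-hour exposure period. GI50 marks 50% less growth. Definition used: TGI = concentration required for complete inhibition of growth.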"}
{"smiles": "COc1cc(C2CC(c3ccc4c(c3)OCO4)=NN2C=O)cc(OC)c1OC", "note": "(stereo unspecified)", "values": [{"measurement": "GI50", "setting": "[1]", "result": "> 23.3", "unit": "µM"}, {"measurement": "TGI", "setting": "[1]", "result": "> 100", "unit": "µM"}, {"measurement": "GI50", "setting": "[2]", "result": 6.88, "unit": "µM"}, {"measurement": "TGI", "setting": "[2]", "result": "> 100", "unit": "µM"}, {"measurement": "GI50", "setting": "[3]", "result": 4.44, "unit": "µM"}, {"measurement": "TGI", "setting": "[3]", "result": "> 100", "unit": "µM"}, {"measurement": "GI50", "setting": "[4]", "result": 0.935, "unit": "µM"}, {"measurement": "TGI", "setting": "[5]", "result": "> 100", "unit": "µM"}, {"measurement": "GI50", "setting": "[6]", "result": 2.39, "unit": "µM"}, {"measurement": "TGI", "setting": "[6]", "result": 8.11, "unit": "µM"}, {"measurement": "GI50", "setting": "[7]", "result": 1.3, "unit": "µM"}, {"measurement": "TGI", "setting": "[7]", "result": "> 100", "unit": "µM"}, {"measurement": "GI50", "setting": "[8]", "result": 4.05, "unit": "µM"}, {"measurement": "TGI", "setting": "[8]", "result": 22.2, "unit": "µM"}, {"measurement": "GI50", "setting": "[9]", "result": 0.735, "unit": "µM"}, {"measurement": "TGI", "setting": "[9]", "result": 4.26, "unit": "µM"}, {"measurement": "GI50", "setting": "[10]", "result": 5.17, "unit": "µM"}, {"measurement": "TGI", "setting": "[10]", "result": "> 64.6", "unit": "µM"}, {"measurement": "GI50", "setting": "[11]", "result": 3.53, "unit": "µM"}, {"measurement": "TGI", "setting": "[11]", "result": "> 100", "unit": "µM"}, {"measurement": "GI50", "setting": "[12]", "result": 2.37, "unit": "µM"}, {"measurement": "TGI", "setting": "[12]", "result": "> 100", "unit": "µM"}, {"measurement": "GI50", "setting": "[13]", "result": 6.86, "unit": "µM"}, {"measurement": "TGI", "setting": "[13]", "result": "> 100", "unit": "µM"}, {"measurement": "GI50", "setting": "[14]", "result": 6.3, "unit": "µM"}, {"measurement": "TGI", "setting": "[14]", "result": "> 100", "unit": "µM"}, {"measurement": "GI50", "setting": "[15]", "result": 1.13, "unit": "µM"}, {"measurement": "TGI", "setting": "[15]", "result": "> 20.1", "unit": "µM"}, {"measurement": "GI50", "setting": "[16]", "result": "> 29.9", "unit": "µM"}, {"measurement": "TGI", "setting": "[16]", "result": "> 100", "unit": "µM"}, {"measurement": "GI50", "setting": "[17]", "result": 13.6, "unit": "µM"}, {"measurement": "TGI", "setting": "[17]", "result": "> 100", "unit": "µM"}, {"measurement": "GI50", "setting": "[18]", "result": 2.25, "unit": "µM"}, {"measurement": "TGI", "setting": "[18]", "result": "> 100", "unit": "µM"}, {"measurement": "GI50", "setting": "[19]", "result": 1.37, "unit": "µM"}, {"measurement": "TGI", "setting": "[19]", "result": "> 100", "unit": "µM"}, {"measurement": "GI50", "setting": "[20]", "result": 4.34, "unit": "µM"}, {"measurement": "TGI", "setting": "[20]", "result": "> 100", "unit": "µM"}, {"measurement": "GI50", "setting": "[21]", "result": 2.21, "unit": "µM"}, {"measurement": "TGI", "setting": "[21]", "result": "> 100", "unit": "µM"}, {"measurement": "GI50", "setting": "[22]", "result": 9.46, "unit": "µM"}, {"measurement": "TGI", "setting": "[22]", "result": "> 100", "unit": "µM"}, {"measurement": "GI50", "setting": "[23]", "result": 0.621, "unit": "µM"}, {"measurement": "TGI", "setting": "[23]", "result": "> 100", "unit": "µM"}, {"measurement": "GI50", "setting": "[24]", "result": 2.81, "unit": "µM"}, {"measurement": "TGI", "setting": "[24]", "result": "> 100", "unit": "µM"}, {"measurement": "GI50", "setting": "[25]", "result": 0.828, "unit": "µM"}, {"measurement": "GI50", "setting": "[26]", "result": 12.2, "unit": "µM"}, {"measurement": "TGI", "setting": "[26]", "result": "> 100", "unit": "µM"}, {"measurement": "GI50", "setting": "[27]", "result": 4.14, "unit": "µM"}, {"measurement": "TGI", "setting": "[27]", "result": "> 100", "unit": "µM"}, {"measurement": "GI50", "setting": "[28]", "result": 4.42, "unit": "µM"}, {"measurement": "TGI", "setting": "[28]", "result": "> 100", "unit": "µM"}, {"measurement": "GI50", "setting": "[29]", "result": 1.34, "unit": "µM"}, {"measurement": "TGI", "setting": "[29]", "result": "> 100", "unit": "µM"}, {"measurement": "GI50", "setting": "[30]", "result": 3.74, "unit": "µM"}]}
